Values of other authors in PMC12119673, “Apoptotic cell death induced by copper (II), manganese (II) and silver (I) complexes containing bridging dicarboxylate and 1,10-phenanthroline ligands: one of the multi-modes of anticancer activity?” (Biometals, 2025).

Legend:
Set-up in all cases: method as in Kellett et al. [2011]; Slator et al. [2017]
HaCaT cells = conditions: HaCaT vs colorectal cancer lines; ref Kellett et al. [2011]; Slator et al. [2017]; cited from earlier work
Galleria Mellonella = conditions: ref Kellett et al. [2011], Slator et al. [2017]; cited from earlier work
HT29, SW480 and SW620 = conditions: ref Kellett et al. [2011], Slator et al. [2017]; cited from earlier work

## O.O.O=C([O-])CCCCCCC(=O)[O-].[Mn+2].[Mn+2].c1cnc2c(c1)ccc1cccnc12.c1cnc2c(c1)ccc1cccnc12.c1cnc2c(c1)ccc1cccnc12.c1cnc2c(c1)ccc1cccnc12 [[Mn2(μ-oda)(phen)4(H2O)2]^2+]
HaCaT cells
  Reduction in potency towards non-cancerous cells: almost tenfold reduction in potency
Galleria Mellonella
  In vivo tolerance: well-tolerated
HT29, SW480 and SW620
  Cytotoxicity towards colorectal cancers: nano-molar cytotoxicity
